# System: HSV-1
# Assay: HSV-1 infection of Vero 76 cells, viral DNA detected by hybridization capture (chemiluminescence)
# Format: cell-based
# Settings: Human alphaherpesvirus 1; HSV-1 in Vero 76 cells, MOI=0.001, compounds incubated 40–48 hours at 37° C.; read-out: IC50
# Description: In the following example, “MEM” means Minimal Essential Media; “FBS” means Fetal Bovine Serum; “NP40” and “Igepal” are detergents; “MOI” means Multiplicity of Infection; “NaOH” means sodium hydroxide; “MgCl2” means magnesium chloride; “dATP” means deoxyadenosine 5′ triphosphate; “dUTP” means deoxyuridine 5′ triphosphate; “dCTP” means dexoxycytidine 5′ triphosphate; “dGTP” means deoxyguanosine 5′ triphosphate; “GuSCN” means Guanidinium thiocyanate; “EDTA” means ethylenediamine tetraacetic acid; “TE” means Tris-EDTA; “SCC” means sodium chloride/sodium citrate; “APE” means a solution of ammonia acetate, ammonia phosphate, EDTA; “PBS” means phosphate buffered saline; and “HRP” means horseradish peroxidase.
# Vero 76 cells were maintained in MEM with Earle's salts, L-glutamine, 8% FBS (Hyclone, A-1111-L) and 100 units/mL Penicillin-100 μg/mL Streptomycin. For assay conditions, FBS was reduced to 2%. Cells are seeded into 96-well tissue culture plates at a density of 5×10^4 cells/well after being incubated for 45 min at 37° C. in the presence of HSV-1 or HSV-2 (MOI=0.001). Test compounds are added to the wells and the plates are incubated at 37° C. for 40–48 hours. Cell lysates are prepared as follows: media was removed and replaced with 150 μL/well 0.2 N NaOH with 1% Igepal CA 630 or NP-40. Plates were incubated up to 14 days at room temperature in a humidified chamber to prevent evaporation.
# For the detection probe, a gel-purified, digoxigenin-labeled, 710-bp PCR fragment of the HSV UL-15 sequence was utilized. PCR conditions included 0.5 μM primers, 180 μM dTTP, 20 μM dUTP-digoxigenin (Boehringer Mannheim 1558706), 200 μM each of dATP, dCTP, and dGTP, 1×PCR Buffer II (Perkin Elmer), 2.5 mM MgCl2, 0.025 units/μL of AmpliTaq Gold polymerase (Perkin Elmer), and 5 ng of gel-purified HSV DNA per 100 μL Extension conditions were 10 min at 95° C., followed by 30 cycles of 95° C. for 1 min, 55° C. for 30 sec, and 72° C. for 2 min. The amplification was completed with a 10-min incubation at 72° C. Primers were selected to amplify a 728 bp probe spanning a section of the HSV1 UL15 open reading frame (nucleotides 249–977). Single-stranded transcripts were purified with Promega M13 Wizard kits. The final product was mixed 1:1 with a mixture of 6 M GuSCN, 100 mM EDTA and 200 μg/mL herring sperm DNA and stored at 4° C.
# The capture DNA plasmid (HSV UL13 region in pUC) was linearized by cutting with Xba I, denatured for 15 min at 95° C. and diluted immediately into Reacti-Bind DNA Coating Solution (Pierce, 17250, diluted 1:1 with TE buffer, pH 8) at 1 ng/μL 75 μL/well were added to Corning (#3922 or 9690) white 96-well plates and incubated at room temperature for at least 4 hrs before washing twice with 300 μL/well 0.2×SSC/0.05% Tween-20 (SSC/T buffer). The plates were then incubated overnight at room temperature with 150 μL/well 0.2 N NaOH, 1% IGEPAL and 10 μg/mL herring sperm DNA.
# Twenty-seven (27) μL of cell lysate was combined with 45 μL of hybridization solution (final concentration: 3M GuSCN, 50 mM EDTA, 100 μg/ml salmon sperm DNA, 5×Denhardt's solution, 0.25×APE, and 5 ng of the digoxigenin-labeled detection probe). APE is 1.5 M NH4-acetate, 0.15 M NH4H2 phosphate, and 5 mM EDTA adjusted to pH 6.0. Mineral oil (50 μL) was added to prevent evaporation. The hybridization plates were incubated at 95° C. for 10 minutes to denature the DNA, then incubated at 42° C. overnight. The wells were washed 6× with 300 μL/well SSC/T buffer then incubated with 75 μL/well anti-digoxigenin-HRP-conjugated antibody (Boehringer Mannheim 1207733, 1:5000 in TE) for 30 min at room temperature. The wells were washed 6× with 300 μL/well with PBS/0.05% Tween-20 before 75 μL/well SuperSignal LBA substrate (Pierce) was added. The plates were incubated at room temperature for 30 minutes and chemiluminescence was measured in a Wallac Victor reader.
# The following results were obtained for HSV-1.
row,IC50 [µM],Compound
1,1.5,"Nc1nccc(-c2c(-c3cccc(Br)c3)nn3c(NC4CCCC4)cccc23)n1 [Example 27, N-[3-(2-Amino-4-pyrimidinyl)-2-(3-bromophenyl)pyrazolo[1,5-a]pyridin-7-yl]-N-cyclopentylamine]"
2,5,"Nc1nccc(-c2c(-c3cccc(Br)c3)nn3c(N4CCCC4)cccc23)n1 [Example 28, 4-[2-(3-Bromophenyl)-7-(1-pyrrolidinyl)pyrazolo[1,5-a]pyridin-3-yl]-2-pyrimidinamine]"
3,3,"c1ccc(-c2cccc(-c3nn4c(NC5CCCC5)cccc4c3-c3ccnc(NC4CCCC4)n3)c2)cc1 [Example 29, 2-[1,1′-Biphenyl]-3-yl-N-cyclopentyl-3-[2-(cyclopentylamino)-4-pyrimidinyl]pyrazolo[1,5-a]pyridin-7-amine]"
4,0.8,"c1ccc(-c2cccc(-c3nn4c(N5CCCC5)cccc4c3-c3ccnc(NC4CCCC4)n3)c2)cc1 [Example 30, 4-[2-[1,1′-Biphenyl]-3-yl-7-(1-pyrrolidinyl)pyrazolo[1,5-a]pyridin-3-yl]-N-cyclopentyl-2-pyrimidinamine]"
5,2,"c1cc(-c2ccncc2)cc(-c2nn3c(NC4CCCC4)cccc3c2-c2ccnc(NC3CCCC3)n2)c1 [Example 31, N-Cyclopentyl-3-[2-(cyclopentylamino)-4-pyrimidinyl]-2-[3-(4-pyridinyl)phenyl]pyrazolo[1,5-a]pyridin-7-amine]"
6,0.6,"c1cc(-c2ccsc2)cc(-c2nn3c(NC4CCCC4)cccc3c2-c2ccnc(NC3CCCC3)n2)c1 [Example 32, N-Cyclopentyl-3-[2-(cyclopentylamino)-4-pyrimidinyl]-2-[3-(3-thienyl)phenyl]pyrazolo[1,5-a]pyridin-7-amine]"
7,0.8,"c1cc(-c2cccs2)cc(-c2nn3c(NC4CCCC4)cccc3c2-c2ccnc(NC3CCCC3)n2)c1 [Example 33, N-Cyclopentyl-3-[2-(cyclopentylamino)-4-pyrimidinyl]-2-[3-(2-thienyl)-phenyl]pyrazolo[1,5-a]pyridin-7-amine]"
8,0.6,"Nc1cccc(-c2nn3c(NC4CCCC4)cccc3c2-c2ccnc(NC3CCCC3)n2)c1 [Example 34, 2-(3-Aminophenyl)-N-cyclopentyl-3-[2-(cyclopentylamino)-4-pyrimidinyl]pyrazolo[1,5-a]pyridin-7-amine]"
9,2,"CC(=O)Nc1cccc(-c2nn3c(NC4CCCC4)cccc3c2-c2ccnc(NC3CCCC3)n2)c1 [Example 35, N-(3-{7-(Cyclopentylamino)-3-[2-(cyclopentylamino)-4-pyrimidinyl]pyrazolo[1,5-a]pyridin-2-yl}phenyl)acetamide]"
10,3,"CS(=O)(=O)Nc1cccc(-c2nn3c(NC4CCCC4)cccc3c2-c2ccnc(NC3CCCC3)n2)c1 [Example 36, N-(3-{7-(Cyclopentylamino)-3-[2-(cyclopentylamino)-4-pyrimidinyl]-pyrazolo[1,5-a]pyridin-2-yl}phenyl)methanesulfonamide]"
11,3,"Nc1cccc(-c2nn3c(N4CCCC4)cccc3c2-c2ccnc(NC3CCCC3)n2)c1 [Example 37, 4-[2-(3-Aminophenyl)-7-(1-pyrrolidinyl)pyrazolo[1,5-a]pyridin-3-yl]-N-cylopentyl-2-pyrimidinamine]"
12,0.3,"c1ccc(-c2nn3c(NC4CCCC4)cccc3c2-c2ccnc(NC3CCCC3)n2)cc1 [Example 38, N-Cyclopentyl-3-[2-(cyclopentylamino)-4-pyrimidinyl]-2-phenylpyrazolo-[1,5-a]pyridin-7-amine]"
13,0.5,"N#Cc1cccc(-c2nn3c(NC4CCCC4)cccc3c2-c2ccnc(NC3CCCC3)n2)c1 [Example 39, 3-{7-(Cyclopentylamino)-3-[2-(cyclopentylamino)-4-pyrimidinyl]pyrazolo[1,5-a]pyridin-2-yl}benzonitrile]"
14,2.5,"NC(=O)c1cccc(-c2nn3c(NC4CCCC4)cccc3c2-c2ccnc(NC3CCCC3)n2)c1 [Example 40, 3-{7-(Cyclopentylamino)-3-[2-(cyclopentylamino)-4-pyrimidinyl]-pyrazolo[1,5-a]pyridin-2-yl}benzamide]"
15,3.5,"O=C(O)c1cccc(-c2nn3c(NC4CCCC4)cccc3c2-c2ccnc(NC3CCCC3)n2)c1 [Example 41, 3-{7-(Cyclopentylamino)-3-[2-(cyclopentylamino)-4-pyrimidinyl]pyrazolo-[1,5-a]pyridin-2-yl}benzoic acid]"
16,1.4,"COc1ccc(-c2nn3c(NC4CCCC4)cccc3c2-c2ccnc(NC3CCCC3)n2)cc1Br [Example 42, N-{4-[2-(3-Bromo-4-methoxyphenyl)-7-(cyclopentylamino)pyrazolo[1,5-a]pyridin-3-yl]-2-pyrimidinyl}-N-cyclopentylamine]"
17,0.5,"Clc1ccc(-c2nn3c(NC4CCCC4)cccc3c2-c2ccnc(NC3CCCC3)n2)cc1Br [Example 43, 2-(3-Bromo-4-chlorophenyl)-N-cyclopentyl-3-[2-(cyclopentylamino)-4-pyrimidinyl]pyrazolo[1,5-a]pyridin-7-amine]"
18,1.8,"Nc1cc(-c2nn3c(NC4CCCC4)cccc3c2-c2ccnc(NC3CCCC3)n2)ccc1Cl [Example 44, 2-(3-Amino-4-chlorophenyl)-N-cyclopentyl-3-[2-(cyclopentylamino)-4-pyrimidinyl]pyrazolo[1,5-a]pyridin-7-amine]"
19,22,"CCCCNc1nccc(-c2c(-c3ccc(NCc4ccccc4)cc3)nn3c(NCCCC)cccc23)n1 [Example 45, 2-[4-(Benzylamino)phenyl]-N-butyl-3-[2-(butylamino)-4-pyrimidinyl]-pyrazolo[1,5-a]pyridin-7-amine]"
20,0.2,"Cc1cccc(-c2nn3c(NC4CCCC4)cccc3c2-c2ccnc(NC3CCCC3)n2)c1 [Example 46, N-Cyclopentyl-3-[2-(cyclopentylamino)-4-pyrimidinyl]-2-(3-methylphenyl)pyrazolo[1,5-a]pyridin-7-amine]"
21,> 40,"Cc1cccc(-c2nn3c(NC4CCCC4)cccc3c2-c2nc(NC3CCCC3)nc(C)c2C)c1 [Example 48, N-cyclopentyl-3-[2-(cyclopentylamino)-5,6-dimethyl-4-pyrimidinyl]-2-(3-methylphenyl)pyrazolo[1,5-a]pyridin-7-amine]"
22,0.5,"Cc1cccc(-c2nn3c(NC(C)C)cccc3c2-c2ccnc(NC3CCCC3)n2)c1 [Example 49, 3-[2-(Cyclopentylamino)-4-pyrimidinyl]-N-isopropyl-2-(3-methylphenyl)pyrazolo[1,5-a]pyridin-7-amine]"
23,2.5,"COc1cccc(-c2nn3c(Cl)cccc3c2-c2ccnc(NC3CCCC3)n2)c1 [Example 50, 4-[7-Chloro-2-(3-methoxyphenyl)pyrazolo[1,5-a]pyridin-3-yl]-N-cyclopentyl-2-pyrimidinamine]"
24,0.21,"COc1cccc(-c2nn3c(NC4CCCC4)cccc3c2-c2ccnc(NC3CCCC3)n2)c1 [Example 51, N-Cyclopentyl-3-[2-(cyclopentylamino)-4-pyrimidinyl]-2-(3-methoxyphenyl)pyrazolo[1,5-a]pyridin-7-amine]"
25,0.56,"COc1cccc(-c2nn3c(NC(C)C)cccc3c2-c2ccnc(NC3CCCC3)n2)c1 [Example 52, 3-[2-(Cyclopentylamino)-4-pyrimidinyl]-N-isopropyl-2-(3-methoxyphenyl)pyrazolo[1,5-a]pyridin-7-amine]"
